Results taken from US20230172929A1, “NOVEL PERIPHERAL CANNABINOID-1 RECEPTOR ANTAGONISTS” (Yissum Research Development Company of the Hebrew …, priority 2019, published 2023).
“Also recorded” adds a separate entry of the source. Read-outs that look alike come from different tables or passages of the source. Blank lines part the entries; values can stand above or below the molecule they belong to.

Experiments:
CB1R [1] = target: T1, CB1R (Mus musculus, UniProt P47746); test: Radioligand binding assay, competition displacement of [3H]CP-55,940, CB1R
T1 construct: crude membranes from mouse brain for CB1R; from tissue; host or cells: mouse brain, crude membranes
T1 sequence (P47746 whole entry): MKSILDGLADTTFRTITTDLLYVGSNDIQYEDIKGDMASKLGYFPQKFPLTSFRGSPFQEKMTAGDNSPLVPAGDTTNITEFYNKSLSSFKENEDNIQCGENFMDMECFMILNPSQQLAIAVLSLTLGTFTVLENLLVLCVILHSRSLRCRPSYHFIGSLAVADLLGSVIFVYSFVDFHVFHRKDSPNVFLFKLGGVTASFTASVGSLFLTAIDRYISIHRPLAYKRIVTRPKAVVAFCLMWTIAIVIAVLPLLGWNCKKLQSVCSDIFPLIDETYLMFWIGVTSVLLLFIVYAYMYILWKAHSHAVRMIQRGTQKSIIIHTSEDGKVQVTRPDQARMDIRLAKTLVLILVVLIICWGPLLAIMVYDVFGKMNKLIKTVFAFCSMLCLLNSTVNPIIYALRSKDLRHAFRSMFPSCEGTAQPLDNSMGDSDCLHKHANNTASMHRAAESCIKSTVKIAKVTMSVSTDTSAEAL
Procedure: Radioligand binding assays: Binding to CB1R and CB2R was assessed in competition displacement assays using [3^H]CP-55,940 as the radioligand and crude membranes from mouse brain for CB1R or human cell membrane for CB2R, as reported previously. All data were in triplicates with Ki values determined from three independent experiments.
CB1R binding: The actual affinity of the 14 candidates was tested in a CB1R competitive binding assay.

[2] = Tissue levels of antagonists (brain, serum) by LC-MS/MS; format: in vivo, mice; conditions: 1 hour after single dose
Procedure: Blood was collected, and the mice were perfused with phosphate buffered saline for 1 min to remove drug from the intravascular space before removing the brain and liver. Drug levels in tissue homogenates and plasma were determined by using LC-MS/MS.

CB1R [3] = target: T1, CB1R; test: [35S]GTPγS binding, with and without CB1R agonist HU-210; format: biochemical; conditions: mouse brain membranes, compounds at 10 μM, with and without HU-210 (100 nM)
Procedure: [^35S]GTPγS binding: Mouse brains (CB1R) or human cell membranes (CB2R) were dissected and P2 membranes prepared and resuspended at ˜2 μg protein/μL in 1 mL assay buffer (50 mM Tris HCl, 9 mM MgCl2, 0.2 mM EGTA, 150 mM NaCl; pH 7.4). Ligand-stimulated [^35S]GTPγS binding was assayed as described previously. Briefly, membranes (10 μg protein) were incubated in assay buffer containing 100 μM GDP, 0.05 nM [^35S]GTPγS, test compounds (HU-210, CP55,940 and tested molecules) at 10 μM, and 1.4 mg/mL fatty acid-free BSA in siliconized glass tubes. Bound ligand was separated from free ligand by vacuum filtration. Non-specific binding was determined using 10 μM GTPS. Basal binding was assayed in the absence of the ligand and in the presence of GDP.
The test was performed for each compound with and without the CB1R agonist HU-210 (100 nM).

mice = test: Locomotor activity, CB1R-mediated hyperactivity; format: in vivo; conditions: 10 mg/kg ip
Source text: Locomotor Activity: Locomotor activity was quantified by the number of disruptions of infrared XYZ beam arrays with a beam spacing of 0.25 cm in the Promethion High-Definition Behavioral Phenotyping System (Sable Instruments, Inc., Las Vegas, Nev., USA).
We next tested whether the reduced brain penetrance of Compound 8/Compound 4 is associated with an attenuation of behavioral effects.

[4] = separated isomer R, read-out: Ki (μM) R
[5] = CB1R competitive binding, mouse brain membranes, [3H]CP-55,940, read-out: Ki
[6] = Mix (not separated), read-out: Ki (μM) Mix
[7] = CB1R competitive binding, values in text, read-out: CB1R Ki

Ki (CB1R [1]; [4]): 4 µM
Structure (SMILES): CC1=C(C(=O)Nc2ccccc2C(F)(F)F)C(c2cccc(Oc3ccccc3)c2)NC(=S)N1 (single isomer, unassigned) [Compound 2-R]

Ki (CB1R [1]; separated isomer S, read-out: Ki (μM) S): 6.33 µM
Structure (SMILES): CC1=C(C(=O)Nc2ccccc2C(F)(F)F)C(c2cccc(Oc3ccccc3)c2)NC(=S)N1 (single isomer, unassigned) [Compound 2-S]

Ki (CB1R [1]; [4]): 1.3 µM
Structure (SMILES): CC(=O)c1cccc(S(=O)(=O)NCCC(=O)NCC(c2ccccc2Cl)c2c[nH]c3ccccc23)c1 (single isomer, unassigned) [Compound 3-R]

Ki (CB1R [1]; separated isomer RR, read-out: Ki (μM) RR): 0.54 µM
brain penetrance (brain levels vs serum levels) ([2]; mice, 10, 20, 50 mg/kg ip): markedly reduced brain penetrance
Structure (SMILES): CC(C)C(NC(=O)c1ccco1)C(=O)NCC(c1ccccc1Cl)c1c[nH]c2ccccc12 (single isomer, unassigned) [Compound 4-RR]

Ki (CB1R [1]; separated isomer RS, read-out: Ki (μM) RS): 8.46 µM
Structure (SMILES): CC(C)C(NC(=O)c1ccco1)C(=O)NCC(c1ccccc1Cl)c1c[nH]c2ccccc12 (single isomer, unassigned) [Compound 4-RS]

Ki (CB1R [1]; separated isomer SR, read-out: Ki (μM) SR): 0.48 µM
brain penetrance (brain levels vs serum levels) ([2]; mice, 10, 20, 50 mg/kg ip): markedly reduced brain penetrance
Structure (SMILES): CC(C)C(NC(=O)c1ccco1)C(=O)NCC(c1ccccc1Cl)c1c[nH]c2ccccc12 (single isomer, unassigned) [Compound 4-SR]

Ki (CB1R [1]; separated isomer SS, read-out: Ki (μM) SS): 1.66 µM
Structure (SMILES): CC(C)C(NC(=O)c1ccco1)C(=O)NCC(c1ccccc1Cl)c1c[nH]c2ccccc12 (single isomer, unassigned) [Compound 4-SS]

Ki (CB1R [1]; [5]): 2.1 µM
Ki (CB1R [1]; [6]): 3.36 µM
activity (agonism, antagonism, inverse agonism) properties (CB1R [3]): inverse agonists
Structure (SMILES): CC1=C(C(=O)Nc2ccccc2C(F)(F)F)C(c2cccc(Oc3ccccc3)c2)NC(=S)N1 (centres unmarked) [Compound 2]

Ki (CB1R [1]; [5]): 1.8 µM
Ki (CB1R [1]; [6]): 1.1 µM
Structure (SMILES): CC(=O)c1cccc(S(=O)(=O)NCCC(=O)NCC(c2ccccc2Cl)c2c[nH]c3ccccc23)c1 (centres unmarked) [Compound 3]

Ki (CB1R [1]; [5]): 1.1 µM
Ki (CB1R [1]; [6]): 1 µM
Structure (SMILES): CC(C)C(NC(=O)c1ccco1)C(=O)NCC(c1ccccc1Cl)c1c[nH]c2ccccc12 (centres unmarked) [Compound 4]
activity (agonism, antagonism, inverse agonism) properties (CB1R [3]): neutral antagonism; also recorded: antagonist

Ki (CB1R [1]; [5]): 3.9 µM
Structure (SMILES): CC(NC(=O)Nc1ccccc1)C(=O)NCC(c1ccccc1Cl)c1c[nH]c2ccccc12 (centres unmarked) [Compound 7]

Ki (CB1R [1]; [5]): 0.408 µM
Ki (CB1R [1]; [7]): ~0.4 µM
Ki (CB1R [1]; [6]): 0.346 µM
activity (agonism, antagonism, inverse agonism) properties (CB1R [3]): inverse agonists
brain penetrance (brain levels vs serum levels) ([2]; mice, 3, 10 and 30 mg/kg ip): markedly reduced brain penetrance
Structure (SMILES): CC1=C(C(=O)Nc2ccccc2C(F)(F)F)C(c2ccc(OCc3ccccc3)cc2)NC(=S)N1 (centres unmarked) [Compound 8]

Ki (CB1R [1]; [5]): 0.414 µM
Ki (CB1R [1]; [7]): ~0.4 µM
activity (agonism, antagonism, inverse agonism) properties (CB1R [3]): positive allosteric modulator (PAM)
Structure (SMILES): N#Cc1ccc(CC(C#N)(Cc2ccc(C#N)cc2)c2nc(-c3ccc(Cl)c(Cl)c3)cs2)cc1 [Compound 10]

Ki (CB1R [1]; [5]): 1.3 µM
activity (agonism, antagonism, inverse agonism) properties (CB1R [3]): inverse agonists
Structure (SMILES): Cc1ccc(C(=O)C2SC(Nc3ccc(Cl)cc3)=C(C(=O)Nc3ccc(Cl)cc3)C2=N)cc1 (centres unmarked) [Compound 11]

Ki (CB1R [1]; [5]): 3.4 µM
activity (agonism, antagonism, inverse agonism) properties (CB1R [3]): inverse agonists
Structure (SMILES): Cc1ccc(NC(=S)Nc2ccc(C(C)C)cc2)c(S(=O)(=O)Nc2ccc(Cl)cc2)c1 [Compound 12]

Ki (CB1R [1]; [5]): 6.5 µM
Structure (SMILES): CC(=O)Nc1ccc(C)c(S(=O)(=O)NCC(c2ccccc2Cl)c2c[nH]c3ccccc23)c1 (centres unmarked) [Compound 13]

Ki (CB1R [1]; [5]): 0.938 µM
Ki (CB1R [1]; [6]): 1.2 µM
activity (agonism, antagonism, inverse agonism) properties (CB1R [3]): inverse agonists
Structure (SMILES): CC(=O)NC(CC(=O)NCC(c1ccccc1Cl)c1c[nH]c2ccccc12)c1ccc(C)cc1 (centres unmarked) [Compound 14]

Structure (SMILES): Cc1c(C(=O)NN2CCCCC2)nn(-c2ccc(Cl)cc2Cl)c1-c1ccc(Cl)cc1 [Rimonabant, reference compound]
inducing CB1R-mediated hyperactivity (activity profile) (mice): induced a marked increase in the activity profile
